Measured values reported in the supplement of paper PMC9938120.

Experiments:
Assay in all cases: drug sensitivity score (DSS3, normalised partial AUC of % inhibition dose-response) (DSS (score)); higher = more sensitive (stronger inhibition of viability); extreme values may be limits of the assay
Details in all cases: 72 h; library: FO5A; assay format: 2D, 384-well, CellTiter-Glo
FMOC09 = tested on: FMOC09 (patient-derived high-grade serous ovarian cancer cells)
In short: (§1)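 On 384-well flat clear-bottom plates carrying compounds at five concentrations across a 10,000-fold range, patient-derived ovarian cancer cells below passage 10 were incubated for 72 h at 37 °C with 5% CO2. CellTiter-Glo readout of viability was processed in Breeze. A higher drug sensitivity score, defined as the partial area under the percent-inhibition dose-response curve divided by the log of the upper asymptote, means greater sensitivity.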

FMOC25_2 = tested on: FMOC25_2 (patient-derived low-grade serous ovarian cancer cells)
In short: as §1

FMOC02_3 = tested on: FMOC02_3 (patient-derived low-grade serous ovarian cancer cells)
In short: as §1

FMOC14 = tested on: FMOC14 (patient-derived high-grade serous ovarian cancer cells)
In short: as §1

FMOC22 = tested on: FMOC22 (patient-derived mucinous ovarian cancer cells)
In short: as §1

FMOC24 = tested on: FMOC24 (patient-derived high-grade serous ovarian cancer cells)
In short: as §1

FMOC02_2 = tested on: FMOC02_2 (patient-derived low-grade serous ovarian cancer cells)
In short: as §1

FMOC03 = tested on: FMOC03 (patient-derived mucinous ovarian cancer cells)
In short: as §1

FMOC06 = tested on: FMOC06 (patient-derived mucinous ovarian cancer cells)
In short: as §1

CC[C@@H](C(=O)[C@@H](C)[C@@H](O)[C@H](C)[C@@H]1O[C@@H]([C@@H](CC)C(=O)O)CC[C@@H]1C)[C@H]1O[C@]2(C=C[C@@H](O)[C@]3(CC[C@@](C)([C@H]4CC[C@](O)(CC)[C@H](C)O4)O3)O2)[C@H](C)C[C@@H]1C [Salinomycin]
drug sensitivity score (FMOC09): 16.4
drug sensitivity score (FMOC25_2): 16.5
drug sensitivity score (FMOC02_3): 1.1
drug sensitivity score (FMOC14): 23.3
drug sensitivity score (FMOC22): 10.6
drug sensitivity score (FMOC24): 26.1
drug sensitivity score (FMOC02_2): 15.4
drug sensitivity score (FMOC03): 12.5
drug sensitivity score (FMOC06): 16.6

Cc1noc2c1-c1ccccc1C(c1ccc(Cl)cc1)=N[C@H]2CC(N)=O [CPI-0610]
drug sensitivity score (FMOC09): 4.3
drug sensitivity score (FMOC25_2): 4
drug sensitivity score (FMOC02_3): 12.5
drug sensitivity score (FMOC14): 1.5
drug sensitivity score (FMOC22): 3.3
drug sensitivity score (FMOC24): 6.4
drug sensitivity score (FMOC02_2): 7.8
drug sensitivity score (FMOC03): 4.3
drug sensitivity score (FMOC06): 0.6

O=C1CCc2c(Oc3ccc4c(c3)[C@@H]3[C@H](O4)[C@H]3c3nc4cc(C(F)(F)F)ccc4[nH]3)ccnc2N1 [BGB-283]
drug sensitivity score (FMOC09): 4.9
drug sensitivity score (FMOC25_2): 5.8
drug sensitivity score (FMOC02_3): 6.8
drug sensitivity score (FMOC14): 1
drug sensitivity score (FMOC22): 3.7
drug sensitivity score (FMOC24): 0.9
drug sensitivity score (FMOC02_2): 7.4
drug sensitivity score (FMOC03): 4.5
drug sensitivity score (FMOC06): 4.8

CN1CCN(C2CCC(n3cc(-c4ccc(Oc5ccccc5)cc4)c4c(N)ncnc43)CC2)CC1 (stereo not drawn)
drug sensitivity score (FMOC09): 19.1
drug sensitivity score (FMOC25_2): 9.9
drug sensitivity score (FMOC02_3): 20
drug sensitivity score (FMOC14): 7.3
drug sensitivity score (FMOC22): 5.5
drug sensitivity score (FMOC24): 9.1
drug sensitivity score (FMOC02_2): 19.8
drug sensitivity score (FMOC03): 9.1
drug sensitivity score (FMOC06): 8.3

Cn1nccc1Nc1nccc(-c2ccn([C@H](CO)c3ccc(Cl)c(F)c3)c(=O)c2)n1 [Ravoxertinib]
drug sensitivity score (FMOC09): 1.9
drug sensitivity score (FMOC25_2): 6.3
drug sensitivity score (FMOC02_3): 8.3
drug sensitivity score (FMOC14): 0
drug sensitivity score (FMOC22): 3.9
drug sensitivity score (FMOC24): 5.5
drug sensitivity score (FMOC02_2): 7.1
drug sensitivity score (FMOC03): 4.6
drug sensitivity score (FMOC06): 8.7

CC1(C)OCCn2c1nc1c(N3CCOCC3)nc(-c3cnc(N)nc3)nc12 [GDC-0084]
drug sensitivity score (FMOC09): 9.6
drug sensitivity score (FMOC25_2): 16.2
drug sensitivity score (FMOC02_3): 18.5
drug sensitivity score (FMOC14): 9.2
drug sensitivity score (FMOC22): 7.4
drug sensitivity score (FMOC24): 7.5
drug sensitivity score (FMOC02_2): 18.1
drug sensitivity score (FMOC03): 10.5
drug sensitivity score (FMOC06): 10.9

CCNCCS(=O)(=O)NC[C@@]1(c2ccccc2)SC(NC(=O)C(C)(C)C)=NN1C(=O)C(C)(C)C [Litronesib]
drug sensitivity score (FMOC09): 6.8
drug sensitivity score (FMOC25_2): 13.5
drug sensitivity score (FMOC02_3): 11.6
drug sensitivity score (FMOC14): 0
drug sensitivity score (FMOC22): 9.2
drug sensitivity score (FMOC24): 0
drug sensitivity score (FMOC02_2): 4.9
drug sensitivity score (FMOC03): 7.9
drug sensitivity score (FMOC06): 0.7
